Measurements published in US20260001844A1, “COMPOUNDS AND METHODS FOR THE TREATMENT AND PREVENTION OF HIV” (priority 2022, published 2026).
Read-outs that look alike come from different tables or passages of the source.

Assays:
[1] = tested on: HIV-1JRFL infected primary CD4+ T cells; assay: ADCC FACS-based assay with HIV+ plasma, HIV-1JRFL infected cells; type: cell-based, human; conditions: for % ADCC (JR-FL): Table 1, approximate values
[2] = tested on: HIV-1CH58TF infected primary CD4+ T cells; assay: ADCC FACS-based assay with HIV+ plasma, HIV-1CH58TF infected cells; type: cell-based, human; conditions: for Susceptibility of HIV-1CH58TF infected cells to ADCC mediated by HIV+ plasma (in words): 50 μM compound, plasma 1:1000; for % ADCC (CH58): Table 1, approximate values, HIV+ plasma 1/1,000, compound 50 μM
[3] = tested on: VSV-G pseudovirus; assay: microbe, parasite or virus in culture; type: cell-based; conditions: read-out: IC50 VSV-G pseudovirus
[4] = tested on: HIV-1CH58TF; assay: Viral neutralization in TZM-bl cells (luciferase), HIV-1CH58TF; type: cell-based
[5] = tested on: HIV-1JRFL; assay: Viral neutralization in TZM-bl cells (luciferase), HIV-1JRFL; type: cell-based
[6] = tested on: HIV-1JRFL infected primary CD4+ T cells; assay: Anti-CoRBS 17b mAb binding to infected cells (flow cytometry), HIV-1JRFL; type: cell-based, human; conditions: 50 μM compound; p24+ cells
Method: (§1) FIG. 4. Anti-CoRBS Ab binding. Anti-CoRBS Ab-17b binding to (A) HIV-1CH58TF, (B) HIV-1JRFL (C) or HIV-1AD8 infected primary CD4+ T cells was done in the presence of 50 μM of the indicated CD4mcs or the same volume of vehicle (DMSO). The median fluorescence intensity (MFI) of 17b binding is reported for the productively-infected cell (p24+) population. Data shown are the mean±SD of at least three independent experiments. Statistical significance was evaluated using an un-paired t test (*, p<0.05; **, p<0.01; ***, p<0.001; ****, p<0.0001; ns, not significant).
The ability of the compounds to expose the co-receptor binding site (CoRBS) were tested by measuring binding of the anti-CoRBS 17b mAb to infected cells. Briefly, primary CD4+ T cells were infected with HIV-1CH58TF, HIV-1JRFL or HIV-1AD8. Two days later, infected cells were co-incubated with 50 μM (+)-BNM-III-170, (S)-MCG-IV-210, TFH-070-A6, TFH-I-116-D1, ZXC-I-090, ZXC-I-092, DL-I-101 (ZXC-I-257), and DL-I-102 (ZXC-I-258) or the same volume of DMSO, and the 17b interaction was measured by flow cytometry after intracellular anti-p24 to identify the infected cell population. […] Defined by the sensitivity to anti-body-mediated neutralization (tier-1, 2 and 3), Tier-2 viruses (HIV-1JRFL and HIV-1AD8) are representative of biologically relevant circulating HIV-1 strains which are moderately neutralized by neutralizing antibodies. Weak neutralizing antibodies, or first generation CD4mc, prevent the infection of viruses from tier-1 but not those from tier-2 or tier-3. […] A similar phenotype was observed when using HIV-1AD8 infected cells (FIG. 4C).
The anti-CoRBS 17b mAb was used alone or in combination with different com-pounds for cell-surface staining. Plasma from different HIV-infected donors were collected, heat-inactivated and conserved. Alexa Fluor 647 conjugated Goat anti-human antibodies (Invitrogen, Waltham, MA, USA) were used as secondary Abs.
Cell-surface staining was performed. Primary CD4 T cells were isolated from healthy donors and infected with HIV-1CH58TF, HIV-1JRFL or HIV-1AD8. Binding of HIV-1-infected cells by plasma (1:1000 dilution) or 17b mAb (5 μg/mL) in the presence or absence of 50 μM compounds was performed 48 h after infection. Cells were then incubated at 37° C. for 1 h followed by adding anti-human Alexa Fluor-647 (Invitrogen) secondary Abs for 20 min. Cells were then stained intracellularly for HIV-1 p24, using the Cytofix/Cytoperm Fixation/Permeabilization Kit (BD Biosciences, Mississauga, ON, Canada) and the fluorescent anti-p24 mAb (PE-conjugated anti-p24, clone KC57; Beckman Coulter/Immunotech). The percentage of infected cells (p24+ cells) was determined by gating the live cell population on the basis of the Aqua-Vivid viability dye staining. Samples were analyzed on an LSRII cytometer (BD Biosciences), and data analysis was performed using FlowJo vX.0.7 (Tree Star, Ashland, OR, USA).

[7] = tested on: HIV-1CH58TF infected primary CD4+ T cells; assay: Anti-CoRBS 17b mAb binding to infected cells (flow cytometry), HIV-1CH58TF; type: cell-based, human; conditions: 50 μM compound; p24+ cells
Method: as §1
The ability of the compounds to expose the co-receptor binding site (CoRBS) were tested by measuring binding of the anti-CoRBS 17b mAb to infected cells. […] Two days later, infected cells were co-incubated with 50 μM (+)-BNM-III-170, (S)-MCG-IV-210, TFH-070-A6, TFH-I-116-D1, ZXC-I-090, ZXC-I-092, DL-I-101 (ZXC-I-257), and DL-I-102 (ZXC-I-258) or the same volume of DMSO, and the 17b interaction was measured by flow cytometry after intracellular anti-p24 to identify the infected cell population. […]
Cell-surface staining was performed. […] The percentage of infected cells (p24+ cells) was determined by gating the live cell population on the basis of the Aqua-Vivid viability dye staining. Samples were analyzed on an LSRII cytometer (BD Biosciences), and data analysis was performed using FlowJo vX.0.7 (Tree Star, Ashland, OR, USA).

[8] = tested on: HIV-1AD8; assay: Viral neutralization in TZM-bl cells (luciferase), HIV-1AD8; type: cell-based; conditions: read-out: IC50 HIV-1AD8
[9] = tested on: HIV-1CH58TF infected primary CD4+ T cells; assay: Cell-surface staining with HIV+ plasma, HIV-1CH58TF infected cells; type: cell-based, human; conditions: 50 μM compound; plasma 1:1000
[10] = tested on: HIV-1AD8 infected primary CD4+ T cells; assay: Cell-surface staining with HIV+ plasma, HIV-1AD8 infected cells; conditions: 50 μM compound; plasma 1:1000
[11] = tested on: HIV-1AD8 infected primary CD4+ T cells; assay: ADCC FACS-based assay with HIV+ plasma, HIV-1AD8 infected cells; type: cell-based, human; conditions: 50 μM compound; plasma 1:1000
[12] = tested on: HIV-1JRFL infected primary CD4+ T cells; assay: Cell-surface staining with HIV+ plasma, HIV-1JRFL infected cells; type: cell-based, human; conditions: 50 μM compound; plasma 1:1000
[13] = Human immunodeficiency virus 1, TZM-bl, read-out: IC50 (CH58)
[14] = Table 2, average ± SD of at least three independent experiments, TZM-bl cells, read-out: IC50 HIV-1CH58TF
[15] = Human immunodeficiency virus 1, TZM-bl, read-out: IC50 (JR-FL)
[16] = Human immunodeficiency virus 1, TZM-bl, read-out: IC50 HIV-1JRFL
[17] = Human immunodeficiency virus 1, TZM-bl

Compound	% ADCC (JR-FL) [1] [%]	Susceptibility of HIV-1CH58TF infected cells to ADCC mediated by HIV+ plasma (in words) [2]	% ADCC (CH58) [2] [%]	IC50 ([3]; Pseudovirus, TZM-bl) [µM]	IC50 [4, 13] [µM]	IC50 [5, 15] [µM]	IC50 [5, 16] [µM]	Exposure of the co-receptor binding site (17b mAb binding), HIV-1JRFL infected cells [6]	HIV+ plasma binding to HIV-1AD8 infected cells [10]	further results
C[C@@H]1CN(C(=O)N2C[C@H](CN)C[C@H](C(=O)Nc3ccc(Cl)c(F)c3)C2)C[C@H](C)N1C (stereo in doubt) [ZXC-I-092]	~2	also the case	~3	> 100	~50	28	54.2 ± 22.8	successfully exposed the CoRBS		IC50 [4, 14]: 0.75 ± 0.12 µM
NCCNC(=O)N1CCC[C@H](C(=O)Nc2ccc(Cl)c(F)c2)C1 [MCG-IV-210, reference compound]		enhanced		> 100			> 100		did not promote HIV+ plasma binding	Exposure of the co-receptor binding site (17b mAb binding), HIV-1CH58 infected cells [7]: exposed the CoRBS; Inhibition of viral infection by HIV-1JRFL (in words) ([5]; TZM-bl neutralization assay): unable to inhibit viral infection; IC50 [8, 17]: > 100 µM; Recognition of HIV-1CH58TF infected cells by HIV+ plasma [9]: enhanced the recognition
O=C(O)CN1CCN(C(=O)N2C[C@H](CO)C[C@H](C(=O)Nc3ccc(Cl)c(F)c3)C2)CC1 (racemic) [DL-I-102, 2-(4-((3S,5R)-3-((4-chloro-3-fluorophenyl)carbamoyl)-5-(hydroxymethyl)piperidine-1-carbonyl)piperazin-1-yl)acetic acid]		also the case		> 100				successfully exposed the CoRBS		
CN1CCN(C(=O)N2CCC[C@H](C(=O)Nc3ccc(Cl)c(F)c3)C2)CC1 [TFH-I-070-A6, (S)-4-(3-((4-chloro-3-fluorophenyl)carbamoyl)piperidine-1-carbonyl)-1-methylpiperazin-1-ium, 2,2,2-trifluoro-acetate]	3	also the case	5	> 100	30	80	67.2 ± 30	successfully exposed the CoRBS	did	
CN1CCN(C(=O)N2C[C@H](CN)C[C@H](C(=O)Nc3ccc(Cl)c(F)c3)C2)CC1 (stereo in doubt) [ZXC-I-090]	~2	also the case	~3	> 100	~50	18				
NCC(=O)N1CCN(C(=O)N2C[C@H](CO)C[C@H](C(=O)Nc3ccc(Cl)c(F)c3)C2)CC1 (racemic) [DL-I-101, (3S,5R)-N-(4-chloro-3-fluorophenyl)-1-(4-glycylpiperazine-1-carbonyl)-5-(hydroxymethyl)piperidine-3-carboxamide]		also the case		> 100				successfully exposed the CoRBS	did	ADCC against HIV-1AD8 infected cells (in words) [11]: translated into ADCC
C[C@@H]1CN(C(=O)N2CCC[C@H](C(=O)Nc3ccc(Cl)c(F)c3)C2)C[C@H](C)N1C (stereo in doubt) [TFH-I-116-D1]	3	also the case	5	> 100	< 1	20		successfully exposed the CoRBS	did	ADCC against HIV-1JRFL infected cells compared to (S)-MCG-IV-210 (in words) ([1]; 50 μM compound, plasma 1:1000): not translated into enhanced ADCC; IC50 ([4]; Human immunodeficiency virus 1, TZM-bl, read-out: IC50 HIV-1CH58TF): 0.065 ± 0.01 µM; IC50 ([5]; Human immunodeficiency virus 1, TZM-bl, read-out: IC50, neutralization of HIV-1JRFL (text, unit printed M)): 43.8 µM; IC50 [8, 17]: 4.8 ± 1.7 µM; ADCC against HIV-1AD8 infected cells (in words) [11]: translated into ADCC; Recognition of HIV-1JRFL infected cells by antibodies from PLWH (HIV+ plasma) [12]: recognized infected cells
CNCc1ccc2c(c1)C[C@H](CN=C(N)N)[C@H]2NC(=O)C(=O)Nc1ccc(Cl)c(F)c1.O=C(O)C(F)(F)F.O=C(O)C(F)(F)F [BNM-III-170, reference compound]		enhanced								IC50 [3]: > 100 µM; IC50 [4, 14]: 0.033 ± 0.01 µM; IC50 ([5]; TZM-bl neutralization assay, read-out: IC50, neutralization of HIV-1JRFL): 13.5 µM; IC50 ([8]; Table 2, average ± SD of at least three independent experiments, TZM-bl cells): 3.75 ± 1.3 µM; Recognition of HIV-1CH58TF infected cells by HIV+ plasma [9]: enhanced the recognition
